US9492471B2, “Methods of treating a disease or disorder associated with Bruton'S Tyrosine Kinase” (Celgene Avilomics Research, Inc., priority 2013, dated 2016)
Read-outs that look alike come from different tables or passages of the source.

Assays:
Assay in all cases: HotSpot kinase profiling
Type in all cases: biochemical
[1] = target: T1, PAK6 (Homo sapiens, UniProt Q9NQU5)
T1 construct: purchased Reaction Biology Corp
Method in brief: (§1)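 Radiometric kinase assay with P81 filter capture; each kinase was added to fresh substrate plus cofactors in reaction buffer and incubated 2 h at room temperature. Unreacted phosphate was washed off with 0.1% phosphoric acid before detection; percent inhibition is relative to DMSO control, averaged over replicates.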

[2] = target: T2, PKCmu/PRKD1 (Homo sapiens, UniProt Q15139)
T2 construct: purchased Reaction Biology Corp
T2 sequence (Q15139 1-912): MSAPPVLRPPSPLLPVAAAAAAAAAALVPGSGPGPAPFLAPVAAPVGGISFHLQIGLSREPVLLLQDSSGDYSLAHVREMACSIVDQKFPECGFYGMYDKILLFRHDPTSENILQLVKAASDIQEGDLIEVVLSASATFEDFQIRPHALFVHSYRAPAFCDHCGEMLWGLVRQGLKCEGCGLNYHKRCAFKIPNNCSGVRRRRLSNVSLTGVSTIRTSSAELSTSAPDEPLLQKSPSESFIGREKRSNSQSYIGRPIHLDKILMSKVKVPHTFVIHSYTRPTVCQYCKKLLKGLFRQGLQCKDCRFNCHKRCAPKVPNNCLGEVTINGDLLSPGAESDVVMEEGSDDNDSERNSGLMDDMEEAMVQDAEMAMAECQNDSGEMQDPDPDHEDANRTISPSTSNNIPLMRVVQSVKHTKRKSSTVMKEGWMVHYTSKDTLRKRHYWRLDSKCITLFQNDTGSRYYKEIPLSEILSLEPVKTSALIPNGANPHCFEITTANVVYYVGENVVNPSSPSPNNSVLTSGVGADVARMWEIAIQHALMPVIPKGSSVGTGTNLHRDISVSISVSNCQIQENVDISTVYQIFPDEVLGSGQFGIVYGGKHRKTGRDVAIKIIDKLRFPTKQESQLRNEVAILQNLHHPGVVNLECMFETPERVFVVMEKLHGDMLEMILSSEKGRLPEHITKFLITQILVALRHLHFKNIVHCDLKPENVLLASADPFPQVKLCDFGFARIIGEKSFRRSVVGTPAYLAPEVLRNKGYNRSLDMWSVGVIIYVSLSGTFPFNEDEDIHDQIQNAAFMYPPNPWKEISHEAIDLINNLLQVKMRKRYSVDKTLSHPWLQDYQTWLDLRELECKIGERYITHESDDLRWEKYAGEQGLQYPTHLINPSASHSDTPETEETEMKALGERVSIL
Method in brief: as §1

[3] = target: T3, LYN (Homo sapiens, UniProt P07948)
T3 construct: purchased Reaction Biology Corp
Method in brief: as §1

[4] = target: T4, CK2a2 (Homo sapiens, UniProt P19784)
T4 construct: purchased Reaction Biology Corp
Method in brief: as §1

[5] = target: T5, EPHA3 (Homo sapiens, UniProt P29320)
T5 construct: purchased Reaction Biology Corp
T5 sequence (P29320 21-983): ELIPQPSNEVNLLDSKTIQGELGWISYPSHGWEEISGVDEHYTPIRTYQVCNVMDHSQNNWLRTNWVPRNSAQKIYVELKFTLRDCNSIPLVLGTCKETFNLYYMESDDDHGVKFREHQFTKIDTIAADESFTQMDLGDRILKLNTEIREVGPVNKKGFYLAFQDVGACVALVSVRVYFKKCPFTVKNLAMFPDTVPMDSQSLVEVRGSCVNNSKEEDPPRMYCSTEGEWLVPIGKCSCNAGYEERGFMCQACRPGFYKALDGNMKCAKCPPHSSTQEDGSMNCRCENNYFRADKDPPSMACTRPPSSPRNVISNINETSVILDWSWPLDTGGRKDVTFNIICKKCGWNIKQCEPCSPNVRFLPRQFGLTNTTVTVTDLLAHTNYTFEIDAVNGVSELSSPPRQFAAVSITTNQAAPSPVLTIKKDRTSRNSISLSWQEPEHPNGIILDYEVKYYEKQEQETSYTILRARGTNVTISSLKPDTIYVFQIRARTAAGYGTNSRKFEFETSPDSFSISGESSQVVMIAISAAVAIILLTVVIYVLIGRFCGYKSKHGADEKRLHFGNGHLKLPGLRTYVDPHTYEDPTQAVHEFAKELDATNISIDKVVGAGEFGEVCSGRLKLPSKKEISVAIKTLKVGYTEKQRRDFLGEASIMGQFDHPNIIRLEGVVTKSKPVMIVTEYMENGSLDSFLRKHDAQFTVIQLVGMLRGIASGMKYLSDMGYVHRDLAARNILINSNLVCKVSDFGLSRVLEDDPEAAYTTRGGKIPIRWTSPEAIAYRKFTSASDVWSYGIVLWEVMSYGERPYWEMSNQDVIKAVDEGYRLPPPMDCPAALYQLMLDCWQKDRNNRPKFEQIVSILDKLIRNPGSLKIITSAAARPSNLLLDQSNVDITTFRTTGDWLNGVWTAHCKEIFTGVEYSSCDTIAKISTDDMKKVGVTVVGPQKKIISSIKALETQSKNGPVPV
Method in brief: as §1

[6] = target: T6, NEK4 (Homo sapiens, UniProt P51957)
T6 construct: purchased Reaction Biology Corp
Method in brief: as §1

[7] = target: T7, COT1/MAP3K8 (Homo sapiens, UniProt P41279)
T7 construct: purchased Reaction Biology Corp
Method in brief: as §1

[8] = read-out: % Enzyme Activity (relative to DMSO controls) Run 1
[9] = read-out: % Enzyme Activity (relative to DMSO controls) Run 2

T3 sequence (P07948 whole entry): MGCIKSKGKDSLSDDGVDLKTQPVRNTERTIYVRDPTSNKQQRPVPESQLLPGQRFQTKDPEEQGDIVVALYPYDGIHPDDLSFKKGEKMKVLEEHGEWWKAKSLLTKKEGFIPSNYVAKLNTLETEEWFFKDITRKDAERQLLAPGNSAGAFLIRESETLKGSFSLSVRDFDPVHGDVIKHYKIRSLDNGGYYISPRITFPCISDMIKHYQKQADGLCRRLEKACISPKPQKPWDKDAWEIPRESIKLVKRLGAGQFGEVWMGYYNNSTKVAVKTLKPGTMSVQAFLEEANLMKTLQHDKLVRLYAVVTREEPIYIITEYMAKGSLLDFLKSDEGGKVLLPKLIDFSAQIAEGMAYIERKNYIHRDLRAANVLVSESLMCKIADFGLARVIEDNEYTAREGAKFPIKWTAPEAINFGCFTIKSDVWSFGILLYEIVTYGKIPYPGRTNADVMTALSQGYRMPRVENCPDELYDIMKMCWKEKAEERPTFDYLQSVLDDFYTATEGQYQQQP
T6 sequence (P51957 whole entry): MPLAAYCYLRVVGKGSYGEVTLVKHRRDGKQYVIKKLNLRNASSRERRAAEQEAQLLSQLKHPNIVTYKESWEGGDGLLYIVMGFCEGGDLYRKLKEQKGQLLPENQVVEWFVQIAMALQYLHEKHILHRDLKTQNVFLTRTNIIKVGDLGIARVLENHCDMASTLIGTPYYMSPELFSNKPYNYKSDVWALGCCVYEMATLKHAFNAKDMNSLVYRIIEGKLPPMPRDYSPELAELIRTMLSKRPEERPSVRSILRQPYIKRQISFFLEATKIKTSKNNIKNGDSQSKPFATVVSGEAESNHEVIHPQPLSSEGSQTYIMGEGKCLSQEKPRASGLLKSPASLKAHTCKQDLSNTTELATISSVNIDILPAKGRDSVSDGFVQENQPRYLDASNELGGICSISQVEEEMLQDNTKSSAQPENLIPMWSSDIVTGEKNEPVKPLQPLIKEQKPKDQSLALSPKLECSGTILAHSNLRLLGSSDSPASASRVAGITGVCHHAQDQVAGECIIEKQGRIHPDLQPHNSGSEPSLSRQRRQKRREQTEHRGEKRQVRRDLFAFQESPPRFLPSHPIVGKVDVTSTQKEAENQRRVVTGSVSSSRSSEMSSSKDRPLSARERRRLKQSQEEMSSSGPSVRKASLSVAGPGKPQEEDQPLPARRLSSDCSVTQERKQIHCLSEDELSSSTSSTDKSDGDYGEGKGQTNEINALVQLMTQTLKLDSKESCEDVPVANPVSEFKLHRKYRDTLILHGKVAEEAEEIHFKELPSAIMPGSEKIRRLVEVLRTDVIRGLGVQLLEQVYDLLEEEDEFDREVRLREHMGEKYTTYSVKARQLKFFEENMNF
T1 sequence (Q9NQU5 whole entry): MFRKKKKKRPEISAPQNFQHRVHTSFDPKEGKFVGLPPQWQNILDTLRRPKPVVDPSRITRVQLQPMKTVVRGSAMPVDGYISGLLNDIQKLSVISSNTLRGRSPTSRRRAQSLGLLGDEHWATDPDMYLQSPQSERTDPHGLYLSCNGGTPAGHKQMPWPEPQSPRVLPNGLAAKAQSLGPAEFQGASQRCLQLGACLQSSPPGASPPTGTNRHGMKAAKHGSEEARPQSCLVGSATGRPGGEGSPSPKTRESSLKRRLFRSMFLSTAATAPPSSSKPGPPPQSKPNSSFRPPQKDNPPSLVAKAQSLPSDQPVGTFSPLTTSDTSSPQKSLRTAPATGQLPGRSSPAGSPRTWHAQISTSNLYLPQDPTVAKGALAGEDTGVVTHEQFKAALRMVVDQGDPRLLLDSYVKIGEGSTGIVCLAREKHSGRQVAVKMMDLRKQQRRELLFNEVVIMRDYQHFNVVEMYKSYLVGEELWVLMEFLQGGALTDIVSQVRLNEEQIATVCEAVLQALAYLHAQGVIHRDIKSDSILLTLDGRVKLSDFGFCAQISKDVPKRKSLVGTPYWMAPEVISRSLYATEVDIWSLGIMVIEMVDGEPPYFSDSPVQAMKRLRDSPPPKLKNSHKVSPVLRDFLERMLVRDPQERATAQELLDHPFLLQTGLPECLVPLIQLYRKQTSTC
T7 sequence (P41279 whole entry): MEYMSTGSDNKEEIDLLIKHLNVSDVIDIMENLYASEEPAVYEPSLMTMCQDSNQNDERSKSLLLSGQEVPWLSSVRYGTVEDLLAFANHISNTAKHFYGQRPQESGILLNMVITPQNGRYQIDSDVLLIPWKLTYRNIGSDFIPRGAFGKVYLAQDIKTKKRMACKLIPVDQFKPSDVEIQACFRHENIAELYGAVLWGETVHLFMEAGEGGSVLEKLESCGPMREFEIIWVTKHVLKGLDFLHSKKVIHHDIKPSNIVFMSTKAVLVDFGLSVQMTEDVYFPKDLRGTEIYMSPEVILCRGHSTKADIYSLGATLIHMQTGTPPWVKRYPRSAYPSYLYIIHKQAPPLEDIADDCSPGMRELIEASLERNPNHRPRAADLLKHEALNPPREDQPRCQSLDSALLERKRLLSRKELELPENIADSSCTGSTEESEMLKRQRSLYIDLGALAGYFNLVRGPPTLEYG
T4 sequence (P19784 whole entry): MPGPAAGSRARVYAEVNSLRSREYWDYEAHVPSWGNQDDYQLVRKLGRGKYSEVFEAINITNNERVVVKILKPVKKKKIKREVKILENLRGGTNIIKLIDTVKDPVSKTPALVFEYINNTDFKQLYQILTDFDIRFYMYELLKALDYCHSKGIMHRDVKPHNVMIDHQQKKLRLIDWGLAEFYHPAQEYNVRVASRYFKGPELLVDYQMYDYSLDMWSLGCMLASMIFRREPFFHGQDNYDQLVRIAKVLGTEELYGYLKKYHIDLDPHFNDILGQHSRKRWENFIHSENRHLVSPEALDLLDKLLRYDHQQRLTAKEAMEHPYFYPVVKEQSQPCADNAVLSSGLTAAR

C=CC(=O)Nc1cccc(Nc2nc(Nc3ccc(OCCOC)c(F)c3)ncc2F)c1 [Compound 2]
inhibition at 3 µM [1]: 18% | remaining activity at 3 µM [1, 8]: 79.3% | remaining activity at 3 µM [1, 9]: 84.8% | inhibition at 3 µM [2]: 24.6% | remaining activity at 3 µM [2, 8]: 74.8% | remaining activity at 3 µM [2, 9]: 75.8% | inhibition at 3 µM [3]: 27.5% | remaining activity at 3 µM [3, 8]: 71.7% | remaining activity at 3 µM [3, 9]: 73.2% | inhibition at 3 µM [4]: -1.81% | remaining activity at 3 µM [4, 8]: 98.2% | remaining activity at 3 µM [4, 9]: 105% | inhibition at 3 µM [5]: 1.81% | remaining activity at 3 µM [5, 8]: 96.2% | remaining activity at 3 µM [5, 9]: 100% | inhibition at 3 µM [6]: 13.5% | remaining activity at 3 µM [6, 8]: 84.6% | remaining activity at 3 µM [6, 9]: 88.3% | inhibition at 3 µM [7]: -1.33% | remaining activity at 3 µM [7, 8]: 102% | remaining activity at 3 µM [7, 9]: 101%
